Where two headings read alike, the source gives them in different places. No end group written: not given here.
Key:
[1] = target: T1, TNFR1-TNF-α binding (Homo sapiens, UniProt P19438); test: MST competitive inhibition of TNFR1-TNF-α binding
T1 sequence (P19438 30-211 limits assumed): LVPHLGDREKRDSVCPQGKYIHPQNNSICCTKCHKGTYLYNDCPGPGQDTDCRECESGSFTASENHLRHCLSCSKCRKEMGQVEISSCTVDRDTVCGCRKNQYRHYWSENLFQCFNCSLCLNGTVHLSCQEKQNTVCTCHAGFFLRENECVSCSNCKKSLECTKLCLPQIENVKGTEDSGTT
Text: On-machine detection, software fitting to find the KD value. The changes of TNF-α saturation concentration, response amplitude and KD value before and after Hydrostatin-SN10 were compared.

[2] = Isoelectric point of Hydrostatin-SN10; format: physicochemical
[3] = target: T2, TNFR2 (Homo sapiens, UniProt P20333); test: MST binding of Hydrostatin-SN10 to TNFR2
T2 sequence (P20333 23-461): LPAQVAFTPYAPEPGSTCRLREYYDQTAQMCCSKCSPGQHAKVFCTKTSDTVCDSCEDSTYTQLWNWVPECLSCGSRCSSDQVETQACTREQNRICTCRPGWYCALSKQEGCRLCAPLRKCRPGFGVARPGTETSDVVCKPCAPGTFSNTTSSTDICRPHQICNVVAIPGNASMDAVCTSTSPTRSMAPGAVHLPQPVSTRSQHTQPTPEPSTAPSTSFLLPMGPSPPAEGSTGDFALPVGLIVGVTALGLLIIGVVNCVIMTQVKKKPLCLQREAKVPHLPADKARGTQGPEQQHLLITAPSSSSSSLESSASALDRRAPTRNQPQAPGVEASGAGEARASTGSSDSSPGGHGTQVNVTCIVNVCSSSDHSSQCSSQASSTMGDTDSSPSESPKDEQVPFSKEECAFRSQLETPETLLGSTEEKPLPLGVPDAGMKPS

[4] = target: T3, TNFR1 (Homo sapiens, UniProt P19438); test: biochemical
T3 sequence (P19438 30-455): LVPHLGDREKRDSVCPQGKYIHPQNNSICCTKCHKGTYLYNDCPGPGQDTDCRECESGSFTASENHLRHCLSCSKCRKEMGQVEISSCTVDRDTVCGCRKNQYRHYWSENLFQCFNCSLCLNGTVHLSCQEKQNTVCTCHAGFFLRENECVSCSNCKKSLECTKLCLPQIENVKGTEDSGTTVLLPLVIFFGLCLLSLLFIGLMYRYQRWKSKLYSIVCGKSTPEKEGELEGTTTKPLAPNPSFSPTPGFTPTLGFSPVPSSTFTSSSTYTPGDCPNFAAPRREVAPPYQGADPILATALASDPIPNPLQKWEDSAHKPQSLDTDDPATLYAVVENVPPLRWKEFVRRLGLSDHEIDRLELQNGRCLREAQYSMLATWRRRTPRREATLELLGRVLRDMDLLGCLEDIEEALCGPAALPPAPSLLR

[5] = target: T4, TNF-α-TNFR1 binding (Homo sapiens, UniProt P19438); test: BIAcore (SPR) competitive inhibition of TNF-α-TNFR1 binding
T4 sequence (P19438 30-211 limits assumed): T1 sequence (P19438 30-211 limits assumed)

[6] = Plasma half-life in SD rats (ELISA); format: in vivo
Procedure: The assay was performed according to the manufacturer's instructions using an ELISA kit purchased from Genzyme. Serum samples were collected from the […] with heparinized 50 μL capillaries, and blood samples were collected at 1 min, 2 min, 3 min, 5 min, 10 min, 15 min, 20 min, 30 min, 45 min, 1 h, 2 h, 4 h, 6 h, 8 h after treatment. After standing for 2 h, the sample was centrifuged, and the obtained supernatant was stored at −20° C. for testing.

[7] = test system: OXZ-induced acute colitis mouse; test: Oxazolone-induced acute colitis mouse model; format: in vivo, Balb/c mice; settings: for body weight change: 400 ug/kg/d i.p. 3 days, FIG. 13; for colon length: 3rd day after enema, FIG. 15; for MPO activity in colon tissue: FIG. 17; for serum IFN-γ level / serum IL-1β level / serum IL-6 level / serum IL-10 (anti-inflammatory factor) / serum TNF-α level: FIG. 18; for pathological changes in colon tissue, HE staining: FIG. 19; for expression of TNF-α in colon tissue sections: FIG. 20
Procedure: Establishment of an oxazolone-induced mouse colitis animal model: Male Balb/c mice, 6-8 weeks old, were randomly divided into 8 groups, each containing 10 mice. On the first day, the back skin of the mouse was shaved (1.5 cm×1.5 cm), and the normal group was coated with 0.15 mL of acetone/olive oil solution (acetone/olive oil volume ratio of 4:1). The model group and the SN10 group were negatively controlled. The drug and the positive control group were skin-coated with 0.15 mL of 3% (w/v) oxazolone (dissolved in acetone/olive oil solution) for skin pre-sensitization. On the 8th day, the mice were anesthetized by intraperitoneal injection of 4% chloral hydrate. The 3.51 catheter was slowly and gently inserted into the colon of the mouse about 4 cm from the anus. The normal group was injected with 0.1 mL of 50% ethanol, and the other groups were injected with […]. 1% (w/v) oxazolone (dissolved in 50% ethanol), slowly pull out the catheter, keep the mouse vertical, head down position for 60 s, so that the drug solution is fully left in the intestinal lumen. After enema, the normal group and the model group were given intraperitoneal injection of 0.1 mL of normal saline. […] The injection dose was 400 ug/kg/d, and the positive drug group was given 0.1 mL sulfasalazine and intravesical injection of infliximab (dissolved in normal saline) at doses of 400 mg/kg/d and 5 mg/respectively. Each kg/d was administered continuously for 3 days.
The body weight changes, stool characteristics and blood in the stool were observed and recorded daily after enema.
On the 3rd day after enema, the mice were sacrificed by cervical dislocation. The colon and spleen were removed immediately. The length of the colon was measured.
Part of the diseased colon tissue was excised and weighed. MPO) activity in mouse colon tissue was detected using a myeloperoxidase (MPO) assay kit (Nanjing Institute of Bioengineering). MPO is a functional marker and activation marker for neutrophils and is involved in many processes that regulate inflammatory responses. Excessive MPO activity catalyzes the reaction to produce excess oxidants, causing local oxidative stress and oxidative tissue damage.
The colon of the mouse were washed with saline, fixed in 10% formalin. Tissue sections were prepared and stained with HE.

[8] = target: T5, TNF-α (Homo sapiens, UniProt P01375); test: BIAcore (SPR) binding of Hydrostatin-SN10 to TNF-α
[9] = target: T5, TNF-α; test: MST binding of Hydrostatin-SN10 to TNF-α; settings: fluorescently labeled TNF-α
[10] = target: T3, TNFR1; test: biochemical; remark: listed apart in the source
[11] = test system: DSS-induced acute colitis mouse; test: Dextran sulfate sodium-induced acute colitis mouse model; format: in vivo, Balb/c mice; settings: for body weight change: DSS 2.5% 7 days, 400 μg/kg/d intraperitoneal, FIG. 5; for myeloperoxidase (MPO) activity in colon tissue: FIG. 9; for serum IFN-γ content / serum IL-6 content / serum IL-10 (anti-inflammatory factor) / serum IL-β content / serum TNF-α content: FIG. 10; for colonic lesions, HE staining: FIG. 11; for TNF-α expressed in colon tissue sections: FIG. 12; for colon length: day 7, FIG. 7
Procedure: The specific implementation steps are as follows: Balb/c mice 6-8 weeks old were randomly divided into 8 groups, each group containing 10 mice.
According to Table 2, the disease activity index (DAI) score was obtained. […] Seven days after the model was established, the mouse were sacrificed by cervical dislocation, and the entire colon and spleen were removed. […] The spleen weight was measured and the spleen index was calculated.

Substance	overall treatment effect in oxazolone-induced colitis ([7]; 400 ug/kg/d i.p.)	body weight change [7]	colon length ([7]; 400 ug/kg/d i.p.)	MPO activity in colon tissue ([7]; 400 ug/kg/d i.p.)	serum IFN-γ level ([7]; 400 ug/kg/d i.p.)	serum IL-1β level ([7]; 400 ug/kg/d i.p.)	serum IL-6 level ([7]; 400 ug/kg/d i.p.)	serum IL-10 (anti-inflammatory factor) ([7]; 400 ug/kg/d i.p.)	serum TNF-α level ([7]; 400 ug/kg/d i.p.)	pathological changes in colon tissue, HE staining ([7]; 400 ug/kg/d i.p.)	expression of TNF-α in colon tissue sections ([7]; 400 ug/kg/d i.p.)	body weight change [11]	overall treatment effect in DSS-induced colitis ([11]; DSS, 400 μg/kg/d i.p.)	myeloperoxidase (MPO) activity in colon tissue ([11]; DSS, 400 μg/kg/d i.p.)	serum IFN-γ content ([11]; DSS, 400 μg/kg/d i.p.)	serum IL-6 content ([11]; DSS, 400 μg/kg/d i.p.)	serum IL-10 (anti-inflammatory factor) ([11]; DSS, 400 μg/kg/d i.p.)	serum IL-β content ([11]; DSS, 400 μg/kg/d i.p.)	serum TNF-α content ([11]; DSS, 400 μg/kg/d i.p.)	colonic lesions, HE staining ([11]; DSS, 400 μg/kg/d i.p.)	also measured
H-DEQHLETELH [Hydrostatin-SN10]	effective in the treatment of oxazolone-induced mouse colitis animal model	significantly reduced the weight loss	significantly improved colon length	effective in inhibiting the increase in MPO activity	significantly reduced	significantly reduced	significantly reduced	significantly increased	significantly reduced	significantly attenuated pathological changes in mouse colon tissue	significantly reduced	effective in inhibiting the weight loss	effective in treating DSS-induced colitis animal models	significantly reduce MPO activity	significantly decreased	significantly decreased	significantly increased	significantly decreased	significantly decreased	effectively inhibit colonic lesions caused by DSS	competitive inhibition of the interaction of TNFR1 and TNF-α [1]: competitively inhibit; isoelectric point [2]: 4.39; binding to TNFR2 ([3]; fluorescently labeled TNFR2): not binding; binding to TNFR2 ([3]; fluorescently labeled TNFR2, listed as SN10): no binding; Kd [4]: 2800 nM; competitive inhibition of the interaction of TNFR1 with TNF-α [5]: competitively inhibits; half-life ([6]; rat, plasma, ELISA): 2.18 h; disease activity index (DAI) score ([7]; 400 ug/kg/d i.p., FIG. 14): effectively alleviate the symptoms of diarrhea and blood in the stool; spleen index ([7]; 400 ug/kg/d i.p., FIG. 16): significantly down-regulate the mouse spleen index; binding to TNF-α [8]: does not bind; binding to TNF-α ([8]; listed as SN10): no binding; binding to TNF-α [9]: not binding; binding to TNF-α ([9]; listed as SN10): no binding; Kd [10]: ~2800 nM; disease activity index (DAI) score ([11]; DSS, 400 μg/kg/d i.p., FIG. 6): effectively alleviate the symptoms of diarrhea and blood in the stool; spleen index ([11]; DSS, 400 μg/kg/d i.p., FIG. 8): effectively inhibit spleen changes caused by colitis; TNF-α expressed in colon tissue sections ([11]; DSS, 400 μg/kg/d i.p.): alleviate the degree of inflammation in the colon tissue; colon length ([11]; DSS, 400 μg/kg/d i.p.): significantly improved the colon length
PEG-SN10: Hydrostatin-SN10 modified with mPEG2000; carboxyl group of mPEG2000 covalently linked to free amino group of N-terminal aspartic acid (mPEG2000-DEQHLETELH)	effective in the treatment of oxazolone-induced mouse colitis animal model	significantly reduced the weight loss	significantly improved colon length	effective in inhibiting the increase in MPO activity	significantly reduced	significantly reduced	significantly reduced	significantly increased	significantly reduced	significantly attenuated pathological changes in mouse colon tissue	significantly reduced	effective in inhibiting the weight loss	effective in treating DSS-induced colitis animal models	significantly reduce MPO activity	significantly decreased	significantly decreased	significantly increased	significantly decreased	significantly decreased	effectively inhibit colonic lesions caused by DSS	plasma half-life compared with Hydrostatin-SN10 ([6]; after PEG modification): longer plasma half-life; TNF-α expressed in colon tissue sections ([11]; DSS, 400 μg/kg/d i.p.): alleviate the degree of inflammation in the colon tissue; colon length ([11]; DSS, 400 μg/kg/d i.p.): significantly improved the colon length

Reference: patent US20200277355A1 (GUILIN EIGHT PLUS ONE PHARMACEUTICAL CO., LTD., priority 2017, published 2020)
